Source: patent US8017612B2, “Piperazine compound and use thereof as a HCV polymerase inhibitor” (priority 2006, dated 2011)
Where a name gives a salt, the structure may show the parent alone.

Key:
[1] = target: T1, HCV polymerase (NS5B) type 1b (Hepatitis C virus genotype 1b, UniProt P26663); assay: Assay of enzyme (HCV polymerase) inhibitory activity, type 1b enzyme; assay type: biochemical, HCV BK strain (type 1b); conditions: HCV polymerase inhibitory activity (IC50), 1b, type 1b enzyme 0.5 μg/ml, 25° C., 60 min
T1 construct: a region encoding NS5B (J Virol 1991 March, 65(3), 1105-13, 544 amino acids after deletion of 47 amino acids on the C-terminal); 6xHis (C); made in house; host or cells: Escherichia coli
In short: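 His-tagged, C-terminally truncated NS5B (BK strain, 1b; 0.5 μg/ml) incubated with compound 60 min at 25 °C on 3′UTR-derived substrate RNA (5 μg/ml), 50 μM ATP/GTP/CTP, 2 μM UTP plus [3H]UTP, pH 7.5. Acid-precipitated RNA counted; IC50 from radioactivity with and without compound.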

[2] = target: T2, HCV polymerase (NS5B) type 1a (Hepatitis C virus genotype 1a, UniProt P26664); assay: Assay of enzyme (HCV polymerase) inhibitory activity, type 1a enzyme; assay type: biochemical, HCV type 1a (cloned from the blood of patients); conditions: HCV polymerase inhibitory activity (IC50), 1a, type 1a enzyme 1.5 μg/ml, 25° C., 60 min
T2 construct: made in house; host or cells: Escherichia coli (by the 'similar method' of the 1b enzyme)
In short: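 His-tagged NS5B, C-terminal 47 residues deleted, type 1a at 1.5 μg/ml, with 5 μg/ml HCV 3′UTR substrate RNA, 50 μM ATP/GTP/CTP, 2 μM UTP plus [3H]UTP, pH 7.5 Tris, 5 mM MgCl2; 60 min at 25° C. TCA-precipitated RNA counted by scintillation; IC50 from radioactivity with vs. without compound.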

SMILES | IC50 [1] [nM] | IC50 [2] [nM]
Cc1nc(N2CCN(S(=O)(=O)c3ccc(OC(F)(F)F)cc3)[C@@H](C(=O)NCc3ccc(C(C)C)cc3)C2)sc1C(=O)N[C@@H](C)C(=O)O [Example 370, (S)-2-({2-[(R)-3-(4-isopropyl-benzylcarbamoyl)-4-(4-trifluoromethoxy-benzenesulfonyl)-piperazin-1-yl]-4-methyl-thiazole-5-carbonyl}-amino)-propionic acid] | < 100 | 100 to 1000
Cc1nc(N2CCN(S(=O)(=O)c3ccc(C(F)(F)F)cc3)[C@@H](C(=O)NCc3ccc(C(C)C)cc3)C2)oc1C(=O)O [Example 371, 2-[(R)-3-(4-isopropyl-benzylcarbamoyl)-4-(4-trifluoromethyl-benzenesulfonyl)-piperazin-1-yl]-4-methyl-oxazole-5-carboxylic acid trifluoroacetate] | 100 to 1000 | 100 to 1000
CC(C)c1ccc(CNC(=O)[C@H]2CN(c3nc(Br)n[nH]3)CCN2S(=O)(=O)c2ccc(C(F)(F)F)cc2)cc1 [Example 372, (R)-4-(5-bromo-2H-[1,2,4]triazol-3-yl)-1-(4-trifluoromethyl-benzenesulfonyl)-piperazine-2-carboxylic acid 4-isopropyl-benzylamide] | < 100 | 100 to 1000
CC(C)c1ccc(CNC(=O)[C@H]2CN(c3ncn[nH]3)CCN2S(=O)(=O)c2ccc(C(F)(F)F)cc2)cc1 [Example 373, (R)-4-(2H-[1,2,4]triazol-3-yl)-1-(4-trifluoromethyl-benzenesulfonyl)-piperazine-2-carboxylic acid 4-isopropyl-benzylamide] | 100 to 1000 | > 1000
CCCc1ccc(CNC(=O)[C@H]2CN(c3cnc(C(=O)O)cn3)CCN2S(=O)(=O)c2ccc(OC(F)(F)F)cc2)cc1 [Example 374, (R)-3-(4-propyl-benzylcarbamoyl)-4-(4-trifluoromethoxy-benzenesulfonyl)-3,4,5,6-tetrahydro-2H-[1,2′]bipyrazinyl-5′-carboxylic acid] | < 100 | < 100
CCCc1ncc(S(=O)(=O)N2CCN(C(C)=O)C[C@@H]2C(=O)NCc2ccc(C(C)C)cc2)s1 [Example 375, (R)-4-acetyl-1-(2-propyl-thiazole-5-sulfonyl)-piperazine-2-carboxylic acid 4-isopropyl-benzylamide] | < 100 | < 100
CC(C)c1ccc(CNC(=O)[C@H]2CN(c3ccc(C(=O)O)nn3)CCN2S(=O)(=O)c2ccc(C(F)(F)F)cc2)cc1 [Example 376, 6-[(R)-3-(4-isopropyl-benzylcarbamoyl)-4-(4-trifluoromethyl-benzenesulfonyl)-piperazin-1-yl]-pyridazine-3-carboxylic acid] | < 100 | < 100
CC(C)c1ccc(CNC(=O)[C@H]2CN(c3cnc(C(N)=O)cn3)CCN2S(=O)(=O)c2ccc(C(F)(F)F)cc2)cc1 [Example 377, (R)-4-(4-trifluoromethyl-benzenesulfonyl)-3,4,5,6-tetrahydro-2H-[1,2′]bipyrazinyl-3,5′-dicarboxylic acid 5′-amide 3-(4-isopropyl-benzylamide)] | < 100 | < 100
CCCc1ccc(CNC(=O)[C@H]2CN(c3nc(C)c(C(=O)O)s3)CCN2S(=O)(=O)c2ccc(OC(F)(F)F)cc2)cc1 [Example 378, 4-methyl-2-[(R)-3-(4-propyl-benzylcarbamoyl)-4-(4-trifluoromethoxy-benzenesulfonyl)-piperazin-1-yl]-thiazole-5-carboxylic acid] | < 100 | < 100
Cc1nc(N2CCN(S(=O)(=O)c3ccc(OC(F)(F)F)cc3)[C@@H](C(=O)NCc3ccc(N(C)C)cc3)C2)sc1C(=O)O [Example 379, 2-[(R)-3-(4-dimethylamino-benzylcarbamoyl)-4-(4-trifluoromethoxy-benzenesulfonyl)-piperazin-1-yl]-4-methyl-thiazole-5-carboxylic acid hydrochloride] | < 100 | < 100
CCCc1ccc(S(=O)(=O)N2CCN(c3nc(C)c(C(=O)O)s3)C[C@@H]2C(=O)NCc2ccc(C(C)C)cc2)s1 [Example 380, 2-[(R)-3-(4-isopropyl-benzylcarbamoyl)-4-(5-propyl-thiophene-2-sulfonyl)-piperazin-1-yl]-4-methyl-thiazole-5-carboxylic acid] | < 100 | < 100
Cc1nc(N2CCN(S(=O)(=O)c3ccc4c(c3)CCCCC4)[C@@H](C(=O)NCc3ccc(C(C)C)cc3)C2)sc1C(=O)O [Example 381, 2-[(R)-3-(4-isopropyl-benzylcarbamoyl)-4-(6,7,8,9-tetrahydro-5H-benzocycloheptene-2-sulfonyl)-piperazin-1-yl]-4-methyl-thiazole-5-carboxylic acid] | < 100 | < 100
CC(C)c1ccc(CNC(=O)[C@H]2CN(c3nc(CCC(=O)O)cs3)CCN2S(=O)(=O)c2ccc(OC(F)(F)F)cc2)cc1 [Example 382, 3-{2-[(R)-3-(4-isopropyl-benzylcarbamoyl)-4-(4-trifluoromethoxy-benzenesulfonyl)-piperazin-1-yl]-thiazol-4-yl}-propionic acid] | 100 to 1000 | 100 to 1000
Cc1nc(N2CCN(S(=O)(=O)c3ccc(OC(F)(F)F)cc3)[C@@H](C(=O)NCc3ccc(C4CC4)cc3)C2)sc1C(=O)O [Example 383, 2-[(R)-3-(4-cyclopropyl-benzylcarbamoyl)-4-(4-trifluoromethoxy-benzenesulfonyl)-piperazin-1-yl]-4-methyl-thiazole-5-carboxylic acid] | < 100 | < 100
CC(C)c1ccc(CNC(=O)[C@H]2CN(C(=O)CNCC(=O)O)CCN2S(=O)(=O)c2ccc(C(F)(F)F)cc2)cc1 [Example 384, {2-[(R)-3-(4-isopropyl-benzylcarbamoyl)-4-(4-trifluoromethyl-benzenesulfonyl)-piperazin-1-yl]-2-oxo-ethylamino}-acetic acid hydrochloride] | 100 to 1000 | 100 to 1000
CC(C)c1ccc(CNC(=O)[C@H]2CN(c3cnc(C(=O)O)cn3)CCN2S(=O)(=O)c2ccc(OC(F)(F)F)cc2)cc1 [Example 385, (R)-3-(4-isopropyl-benzylcarbamoyl)-4-(4-trifluoromethoxy-benzenesulfonyl)-3,4,5,6-tetrahydro-2H-[1,2′]bipyrazinyl-5′-carboxylic acid] | < 100 | < 100
O=C(O)c1cnc(N2CCN(S(=O)(=O)c3ccc(OC(F)(F)F)cc3)[C@@H](C(=O)NCc3ccc(OC(F)(F)F)cc3)C2)cn1 [Example 386, (R)-4-(4-trifluoromethoxy-benzenesulfonyl)-3-(4-trifluoromethoxy-benzylcarbamoyl)-3,4,5,6-tetrahydro-2H-[1,2′]bipyrazinyl-5′-carboxylic acid] | < 100 | < 100
Cc1nc(N2CCN(S(=O)(=O)c3ccc(OC(F)(F)F)cc3)[C@@H](C(=O)NCc3ccc(N(C)C)nc3)C2)sc1C(=O)O [Example 387, 2-[(R)-3-[(6-dimethylamino-pyridin-3-ylmethyl)-carbamoyl]-4-(4-trifluoromethoxy-benzenesulfonyl)-piperazin-1-yl]-4-methyl-thiazole-5-carboxylic acid] | < 100 | < 100
CCCc1ccc(CNC(=O)[C@H]2CN(c3nc(C)c(C(=O)O)s3)CCN2S(=O)(=O)c2ccc(OC(F)(F)F)cc2)cn1 [Example 388, 4-methyl-2-[(R)-3-[(6-propyl-pyridin-3-ylmethyl)-carbamoyl]-4-(4-trifluoromethoxy-benzenesulfonyl)-piperazin-1-yl]-thiazole-5-carboxylic acid] | < 100 | 100 to 1000
Cc1nc(N2CCN(S(=O)(=O)c3ccc(OC(F)(F)F)cc3)[C@@H](C(=O)NCc3ccc(N4CCC4)nc3)C2)sc1C(=O)O [Example 389, 2-[(R)-3-[(6-azetidin-1-yl-pyridin-3-ylmethyl)-carbamoyl]-4-(4-trifluoromethoxy-benzenesulfonyl)-piperazin-1-yl]-4-methyl-thiazole-5-carboxylic acid] | < 100 | 100 to 1000
Cc1nc(N2CCN(S(=O)(=O)c3ccc(OC(F)(F)F)cc3)[C@@H](C(=O)NCc3ccc(N4CCCC4)nc3)C2)sc1C(=O)O [Example 390, 4-methyl-2-[(R)-3-[(6-pyrrolidin-1-yl-pyridin-3-ylmethyl)-carbamoyl]-4-(4-trifluoromethoxy-benzenesulfonyl)-piperazin-1-yl]-thiazole-5-carboxylic acid] | < 100 | 100 to 1000
CC(C)c1ccc(CNC(=O)[C@H]2CN(C(=O)CNCCC(=O)O)CCN2S(=O)(=O)c2ccc(C(F)(F)F)cc2)cc1 [Example 391, 3-{2-[(R)-3-(4-isopropyl-benzylcarbamoyl)-4-(4-trifluoromethyl-benzenesulfonyl)-piperazin-1-yl]-2-oxo-ethylamino}-propionic acid hydrochloride] | 100 to 1000 | 100 to 1000
COc1ccc(CCNC(=O)[C@H]2CN(C(C)=O)CCN2S(=O)(=O)c2ccc(C(C)C)cc2)cc1 [Example 392, (R)-4-acetyl-1-(4-isopropyl-benzenesulfonyl)-piperazine-2-carboxylic acid [2-(4-methoxy-phenyl)-ethyl]-amide] | > 1000 | > 1000
